Source: PubChem BioAssay AID2060910 (Molecular Pharmacology Branch, DTP, NCI, 2025)

System: 242566-281-R-J2-PDC complex spheroid viability
Experiment: Anticancer human tumor 242566-281-R-J2-PDC patient-derived pancreatic carcinoma cell line growth inhibition [RAS]
Conditions: for IC50: curve of first compound; for viability, T/C: stronger effect = lower value; active means viability on the fitted dose curve at most 10% of control; inactive means the rest
Method in brief: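 Multi-cell-type spheroids: tumor cells plus HUVEC endothelial cells and mesenchymal stem cells. RAS-pathway inhibitors were combined with targeted agents, each dosed in half-log steps down from clinical Cmax, or from 10 microM when Cmax was unknown.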
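Further: spheroids exposed to compound for 7 days before readout.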
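Wherever viability, T/C is given: 100% = DMSO vehicle control wells.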

NC1c2ccccc2OC12CCN(c1cnc3c(N4CCCc5ncccc54)n[nH]c3n1)CC2 (configuration not stated) + C#Cc1c(F)ccc2cc(O)cc(-c3ncc4c(N5CC6CCC(C5)N6)nc(OCC56CCCN5CC(F)C6)nc4c3F)c12
0.0524 µM: IC50 (second compound 0.1 µM)
inactive: viability, T/C (second compound 0.0316 µM, first compound 0.0316 µM) 72.3% | viability, T/C (second compound 0.0316 µM, first compound 0.1 µM) 56.2% | viability, T/C (second compound 0.0316 µM, first compound 0.316 µM) 41.6% | viability, T/C (second compound 0.0316 µM, first compound 1 µM) 33.1% | viability, T/C (second compound 0.0316 µM, first compound 3.16 µM) 29.7% | viability, T/C (second compound 0.0316 µM, first compound 10 µM) 22.9% | viability, T/C (second compound 0.1 µM, first compound 0.0316 µM) 52.3% | viability, T/C (second compound 0.1 µM, first compound 0.1 µM) 49% | viability, T/C (second compound 0.1 µM, first compound 0.316 µM) 36.8% | viability, T/C (second compound 0.1 µM, first compound 1 µM) 28.4% | viability, T/C (second compound 0.1 µM, first compound 3.16 µM) 34.1% | viability, T/C (second compound 0.1 µM, first compound 10 µM) 20.3% | viability, T/C (second compound 0.316 µM, first compound 0.0316 µM) 40.6% | viability, T/C (second compound 0.316 µM, first compound 0.1 µM) 43% | viability, T/C (second compound 0.316 µM, first compound 0.316 µM) 36.1% | viability, T/C (second compound 0.316 µM, first compound 1 µM) 35.7% | viability, T/C (second compound 0.316 µM, first compound 3.16 µM) 31.8% | viability, T/C (second compound 0.316 µM, first compound 10 µM) 17.3% | viability, T/C (second compound 1 µM, first compound 0.0316 µM) 32.2% | viability, T/C (second compound 1 µM, first compound 0.1 µM) 37.8% | viability, T/C (second compound 1 µM, first compound 0.316 µM) 36.3% | viability, T/C (second compound 1 µM, first compound 1 µM) 29% | viability, T/C (second compound 1 µM, first compound 3.16 µM) 34% | viability, T/C (second compound 1 µM, first compound 10 µM) 18.7% | viability, T/C (second compound 3.16 µM, first compound 0.0316 µM) 35.2% | viability, T/C (second compound 3.16 µM, first compound 0.1 µM) 38.1% | viability, T/C (second compound 3.16 µM, first compound 0.316 µM) 39.5% | viability, T/C (second compound 3.16 µM, first compound 1 µM) 33.7% | viability, T/C (second compound 3.16 µM, first compound 3.16 µM) 34.9% | viability, T/C (second compound 3.16 µM, first compound 10 µM) 16.2% | viability, T/C (second compound 10 µM, first compound 0.0316 µM) 38.1% | viability, T/C (second compound 10 µM, first compound 0.1 µM) 36.9% | viability, T/C (second compound 10 µM, first compound 0.316 µM) 39.6% | viability, T/C (second compound 10 µM, first compound 1 µM) 33% | viability, T/C (second compound 10 µM, first compound 3.16 µM) 35.5% | viability, T/C (second compound 10 µM, first compound 10 µM) 10.4%
< 0.0316 µM: IC50 (second compound 0.316 µM) | IC50 (second compound 1 µM) | IC50 (second compound 3.16 µM) | IC50 (second compound 10 µM)
0.163 µM: IC50 (second compound 0.0316 µM)
